The values that follow come from paper PMC11906898 (Nature Communications, 2025).

Where two headings read alike, the source gives them in different places.

One data set in a line: in vitro. It is filed as in vitro ADME. The following applies: human, microsomes, pH 7.4.
The subject of data set [1] is seizurogenic activity.
Data set [2] deals with seizurogenic activity. The following applies: mouse, in vivo.
A further data set has as its system spontaneous ambulation. It is filed as in vivo, C57BL6/J mice. The conditions noted are these: C6-Quino 30 mg/kg s.c.; morphine 10 or 30 mg/kg s.c.
The next data set concerns respiration rate. It is filed as in vivo, C57BL6/J mice. The following applies: 30 mg/kg sc.

What is called half-life is how long it takes for the measured level to halve. Lower therefore signals rapid decline. For the molecule `CCN(CC)CCNC(=O)c1c(C)[nH]c(/C=C2\C(=O)Nc3ccc(F)cc32)c1C` [Sunitinib], the half-life in the data set “in vitro” is 27 min.

With SNC80, the “seizures after intracerebroventricular dosing” value with seizurogenic activity [1] (mouse, in vivo) is “caused robust seizures”. Moreover, in the data set with seizurogenic activity [2], the duration of seizures is on record as 20 min and the “seizures after sc dosing” value is given as “produced robust seizures”.

For `CN1CC[C@]23c4c5ccc(O)c4O[C@H]2[C@@H](O)C=C[C@H]3[C@H]1C5` [morphine], the locomotion entry in the data set on spontaneous ambulation is “significant increase in locomotion above baseline”. Besides, the breath rate result in the data set on respiration rate is “showed respiratory depression”.

For TAN67, in the data set on seizurogenic activity [1] (100 nmol i.c.v.), the “seizures after intracerebroventricular dosing” value is on record as “caused robust seizures”.
